Test results as given in ChEMBL document CHEMBL1201862, “PubChem BioAssay data set” (2004).
Active and inactive are the calls of the source.

What was measured:
[1] = biological target: T1, Adenosylmethionine-8-amino-7-oxononanoate aminotransferase (Mycobacterium tuberculosis, UniProt P9WQ81); assay: Mycobacterium tuberculosis BioA enzyme inhibitor Measured in Biochemical System Using Plate Reader - 2163-02_Inhibitor_Dose_CherryPick_Activity.; format: functional, Mycobacterium tuberculosis UT205
T1 sequence (P9WQ81 whole entry): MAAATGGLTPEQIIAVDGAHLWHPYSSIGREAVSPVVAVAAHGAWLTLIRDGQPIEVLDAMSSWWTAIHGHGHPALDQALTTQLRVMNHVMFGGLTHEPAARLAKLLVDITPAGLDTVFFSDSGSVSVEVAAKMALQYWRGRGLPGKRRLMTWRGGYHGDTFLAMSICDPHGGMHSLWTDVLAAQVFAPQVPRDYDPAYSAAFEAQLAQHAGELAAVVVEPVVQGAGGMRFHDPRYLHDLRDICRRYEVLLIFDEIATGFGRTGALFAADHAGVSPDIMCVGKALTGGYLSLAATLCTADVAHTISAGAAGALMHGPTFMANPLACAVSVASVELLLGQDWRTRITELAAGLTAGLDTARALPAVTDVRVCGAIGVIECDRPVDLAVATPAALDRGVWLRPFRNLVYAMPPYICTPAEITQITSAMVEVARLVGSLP

INS1 = assay: beta cell apoptosis inhibitors, cytokine rescue, dose response, luminescence, retest (AID 449756); format: functional, cell-based; details: Rattus norvegicus;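 further: cell death triggered by IL-1 beta plus TNF-alpha plus IFN-gamma mixture; protective hits raise ATP signal compared with cytokine alone wells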
Protein Wnt-3a = Protein Wnt-3a (Mus musculus, UniProt P27467); assay: Wnt3a-driven reporter signaling inhibition, dose response, selectivity assay for Gli-SUFU antagonist project, Wnt-LIGHT cells, luminescence (AID 651570); format: functional; details: read-out: IC50_Mean;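 further: Wnt-LIGHT reporter cells stimulated with conditioned medium from Wnt3a-producing cells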
[2] = biological target: Induced myeloid leukemia cell differentiation protein Mcl-1 (Homo sapiens, UniProt Q07820); format: functional
Beta-galactosidase = Beta-galactosidase (Escherichia coli, UniProt Q8VNN2); assay: Dose response counterscreen for EBI2 assay utilizing the enzyme, b-galactosidase.; format: functional
Protein RecA = biological target: T2, Protein RecA (Mycobacterium tuberculosis, UniProt P9WHJ3); assay: Fluorescence Cell-Free Homogeneous Dose Retest to Identify Inhibitors of RecA-Intein Splicing Activity. [Related pubchem assays (depositor defined):AID2097, AID2223, AID489010, AID492950]; format: functional
T2 sequence (P9WHJ3 whole entry): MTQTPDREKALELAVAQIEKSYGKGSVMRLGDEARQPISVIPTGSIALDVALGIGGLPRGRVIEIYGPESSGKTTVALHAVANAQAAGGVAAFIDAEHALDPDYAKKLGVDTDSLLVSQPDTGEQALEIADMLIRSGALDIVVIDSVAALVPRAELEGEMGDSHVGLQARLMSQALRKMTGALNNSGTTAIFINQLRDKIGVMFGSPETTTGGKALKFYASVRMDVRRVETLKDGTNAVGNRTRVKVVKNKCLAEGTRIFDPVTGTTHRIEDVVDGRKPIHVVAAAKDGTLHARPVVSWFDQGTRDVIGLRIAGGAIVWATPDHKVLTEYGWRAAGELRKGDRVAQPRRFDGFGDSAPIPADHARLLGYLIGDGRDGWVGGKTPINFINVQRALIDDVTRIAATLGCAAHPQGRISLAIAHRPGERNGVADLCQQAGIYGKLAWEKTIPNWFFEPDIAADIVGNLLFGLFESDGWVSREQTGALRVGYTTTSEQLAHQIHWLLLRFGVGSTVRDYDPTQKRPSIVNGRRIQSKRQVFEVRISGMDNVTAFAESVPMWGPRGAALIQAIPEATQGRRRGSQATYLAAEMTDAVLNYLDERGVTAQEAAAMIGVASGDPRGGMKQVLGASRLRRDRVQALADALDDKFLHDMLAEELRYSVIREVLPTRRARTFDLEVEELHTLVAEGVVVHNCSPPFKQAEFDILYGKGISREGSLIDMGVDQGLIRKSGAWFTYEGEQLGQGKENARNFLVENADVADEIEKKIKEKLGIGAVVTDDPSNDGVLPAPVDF

[3] = biological target: T3, Heat shock factor protein 1 (Mus musculus, UniProt P38532); assay: HSF1 potentiators in luciferase reporter cells, confirmation, cell-based, NIH3T3, luminescence, dose retest (AID 435004); format: functional;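 further: stress induced by proteasome inhibitor MG132 added 30 min after compound; luciferase reporter driven by HSF1 response element in NIH3T3 cells; actives raise luminescence as potentiators of the MG132 stress response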
T3 sequence (P38532 whole entry): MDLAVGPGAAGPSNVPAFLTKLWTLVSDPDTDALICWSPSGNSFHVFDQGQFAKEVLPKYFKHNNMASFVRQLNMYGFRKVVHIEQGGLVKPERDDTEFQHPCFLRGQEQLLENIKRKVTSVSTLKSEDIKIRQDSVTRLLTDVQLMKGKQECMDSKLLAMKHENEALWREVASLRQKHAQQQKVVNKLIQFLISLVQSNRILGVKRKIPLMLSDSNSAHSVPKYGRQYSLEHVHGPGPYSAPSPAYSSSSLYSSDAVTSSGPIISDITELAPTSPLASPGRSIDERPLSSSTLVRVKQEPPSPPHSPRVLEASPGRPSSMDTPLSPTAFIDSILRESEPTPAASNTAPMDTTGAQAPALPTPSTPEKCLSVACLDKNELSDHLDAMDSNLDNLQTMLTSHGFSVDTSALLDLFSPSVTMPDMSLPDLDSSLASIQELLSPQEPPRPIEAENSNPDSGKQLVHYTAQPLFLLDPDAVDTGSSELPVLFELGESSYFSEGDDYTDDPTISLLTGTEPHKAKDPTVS

[4] = biological target: T4, Mannose-6-phosphate isomerase (Homo sapiens, UniProt P34949); assay: human PMI inhibitors, high substrate, primary screen, biochemical, fluorescence intensity, high mannose 6-phosphate (AID 1220)
T4 sequence (P34949 whole entry): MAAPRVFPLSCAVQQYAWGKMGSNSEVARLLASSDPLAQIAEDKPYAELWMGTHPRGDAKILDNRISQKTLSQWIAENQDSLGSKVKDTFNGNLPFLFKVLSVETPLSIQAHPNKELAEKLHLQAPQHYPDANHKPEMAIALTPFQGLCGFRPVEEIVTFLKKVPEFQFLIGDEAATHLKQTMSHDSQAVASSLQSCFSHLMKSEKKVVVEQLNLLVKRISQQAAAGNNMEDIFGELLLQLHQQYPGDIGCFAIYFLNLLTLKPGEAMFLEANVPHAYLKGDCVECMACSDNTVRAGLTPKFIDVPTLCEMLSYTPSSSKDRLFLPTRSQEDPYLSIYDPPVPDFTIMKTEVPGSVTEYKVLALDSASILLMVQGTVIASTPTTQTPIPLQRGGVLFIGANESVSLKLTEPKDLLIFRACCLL

[5] = cytotoxicity in HEK-293T cells, dose response, cytotoxicity control for TCR NF-kB inhibitor project, luminescence, T-cell screen hits (AID 489026); format: functional, cell-based;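 further: cells exposed to compound about 14 hours before the viability readout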
[6] = HepG2 cell cytotoxicity, dose response, cytotoxicity control for Shn3 inhibitor project, CellTiter-Glo, cherry-picked (AID 624134); format: functional, cell-based
[7] = control 3'UTR Renilla luciferase suppression, dose response, counter-screen for Shn3 inhibitor project, cell-based, Clone20-Shn3RL, cherry-picked (AID 624133); format: functional
[8] = Shn3 3'UTR reporter inhibitors, dose response, cell-based, Clone20 osteoblasts, firefly luciferase, cherry-picked (AID 624132); format: functional;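 further: firefly luciferase luminescence from reporter carrying the Shn3 3'UTR in osteoblasts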
[9] = MC4R antagonists, dose response, counter-screen for LGR2 antagonist project, cell-based, plate reader, cherry pick (AID 743444); format: functional;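 further: transfected HEK 293 cells stimulated with alpha-MSH peptide; potency of inhibitors of the alpha-MSH evoked signal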
[10] = LGR2 antagonists, dose response, cell-based, HEK293, CRE-luciferase reporter, cherry pick, set 2 (AID 743343); format: functional;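 further: transfected cells were stimulated with diluted bursicon conditioned medium after compound addition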
[11] = A549 cell cytotoxicity, dose response, cytotoxicity control, plate reader, cherry-pick, antagonist series (AID 743412); format: functional, cell-based
[12] = IGROV1 ovarian cancer cell cytotoxicity, dose response, PAX8 inhibitor project, plate reader, dry powder samples (AID 743043); format: functional, cell-based; details: IGROV-1
[13] = NIH:OVCAR-3 ovarian cancer cell cytotoxicity, dose response, PAX8 inhibitor project, plate reader, dry powder samples (AID 743044); format: functional, cell-based
Paired box protein Pax-8 = Paired box protein Pax-8 (Homo sapiens, UniProt Q06710); assay: inhibitors of PAX8-driven TPO luciferase reporter, dose response, RMG-I cells, cherry-pick (AID 687027); format: functional, cell-based;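 further: luciferase reporter driven by Pax8 target thyroperoxidase promoter measured by SteadyGlo luminescence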
[14] = A2780 ovarian cancer cell cytotoxicity, dose response, cytotoxicity control, plate reader, dry powder samples (AID 743046); format: functional, cell-based
[15] = cytotoxicity in OVCAR8 ovarian cancer cells, dose response, PAX8 project, cell-based, plate reader, dry powder samples (AID 743197); format: functional; details: OVCAR-8
cells [16] = format: functional, cell-based
cells [17] = format: functional, cell-based; remark: listed apart in the source
[18] = biological target: T5, Endoribonuclease toxin MazF (Escherichia coli K-12, UniProt P0AE70); assay: MazF toxin RNase activators, dose response, biochemical, fluorescence, single-stranded RNA substrate, uHTS hits (AID 588481); format: functional
T5 sequence (P0AE70 whole entry): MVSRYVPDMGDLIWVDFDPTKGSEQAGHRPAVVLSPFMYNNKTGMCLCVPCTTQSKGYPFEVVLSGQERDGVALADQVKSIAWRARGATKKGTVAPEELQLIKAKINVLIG

Melanocortin receptor 4 = Melanocortin receptor 4 (Homo sapiens, UniProt P32245); format: functional, cell-based;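 further: Cell-based assay with luminescence read-out, confirmatory dose-response testing for agonist activity of biased ligands at MC4R; human U2OS cells with tagged receptor and beta-arrestin; potency of agonists that increase receptor coupling to beta-arrestin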
[19] = biological target: T5, Endoribonuclease toxin MazF; assay: fluorescent RNA oligo signal without MazF, dose response, counter-screen for MazEF activator project, biochemical, fluorescence, single-stranded RNase substrate (AID 588502); format: functional
Troponin, cardiac muscle = Troponin, cardiac muscle (Homo sapiens, UniProt P19429+P45379+P63316); assay: Fluorescence-based biochemical high throughput dose response assay for activators of the calcium sensitivity of cardiac Regulated Thin Filaments (RTF). [Related pubchem assays (depositor defined):AID493008, AID493018, AID504382, AID504383]; format: protein-complex assay
[20] = growth suppression of PTEN-null colon cells, dose response, cell-based, HCT116 PTEN knockout (AID 1047); format: functional;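 further: HCT116 colon tumor cells with PTEN knocked out; cells exposed to compound for 60 hours before readout; potency for loss of cell viability measured by luminescence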
[21] = growth suppression of beta-catenin-knockout colon cells, dose response, cell-based, HCT116, human colon tumor (AID 1045); format: functional;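 further: HCT116 colon tumor cells with beta catenin knocked out; cells exposed to compound for 60 hours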

## COc1cc(-c2nc3ccccc3nc2-c2ccc(O)c(OC)c2)ccc1O
[1]
  AC50: 3.99 µM (active)

## Cc1sc2ncnc(N3CCN(S(=O)(=O)c4ccc(C(C)(C)C)cc4)CC3)c2c1C
INS1
  AC50: 3.23 µM (active)
Protein Wnt-3a
  IC50: 6.86 µM (active)

## COc1ccccc1-c1c(-c2ccc(O)cc2O)n[nH]c1C(F)(F)F
Protein Wnt-3a
  IC50: 2.07 µM (active)

## COc1ccc(-c2nc3ccc(Cl)cn3c2Cc2ccccc2)cc1OC
[1]
  AC50: 10.6 µM (active)

## CSc1nc(N(C)CCO)c2sc3nc(-c4ccco4)c4c(c3c2n1)CCC4
[2]
  IC50: 5.59 µM (active)

## COC(=O)c1ccc(/N=c2\sc(C(=O)OC)cc(=O)n2C)cc1
Beta-galactosidase
  IC50: > 80 µM (inactive)

## COc1ccc(/C=N/N=C/c2cnc(O)c(C#N)c2Nc2ccccc2)cc1
Beta-galactosidase
  IC50: > 80 µM (inactive)

## CCCCn1c(NC(=O)c2ccco2)c(S(=O)(=O)c2ccc(C)cc2)c2nc3ccccc3nc21
Protein RecA
  EC50: > 380 µM (inactive)
[3]
  EC50: 152 µM (active)
[4]
  IC50: > 50 µM (not active)

## CCOc1ccc(NC(S)=Nc2cccc3cnccc23)cc1
[4]
  IC50: > 50 µM (not active)

## CCCCc1ccc(NC(=O)C(=O)NCCN2CCN(Cc3ccc([N+](=O)[O-])cc3)CC2)cc1
[5]
  IC50: > 80 µM (inactive)
[6]
  AC50: 64.2 µM (active)
Protein Wnt-3a
  IC50: 1.8 µM (active)
[7]
  AC50: 4.92 µM (active)
[8]
  AC50: 1.13 µM (active)

## CCCCc1ccc(NC(=O)c2cnccn2)cc1
[9]
  AC50: 9.42 µM (active)
[10]
  AC50: 12.4 µM (active)
[11]
  AC50: > 52 µM (inactive)

## C[C@@H]1CN([C@H](C)CO)C(=O)c2cc(NS(=O)(=O)c3cccs3)ccc2O[C@@H](C)CCCCO[C@@H]1CN(C)Cc1ccc(Cl)c(Cl)c1
[12]
  AC50: 26.5 µM (active)
[13]
  AC50: 16.9 µM (active)
Paired box protein Pax-8
  AC50: 4.91 µM (active)
[14]
  AC50: 27.8 µM (active)
[15]
  AC50: 20.5 µM (active)

## CCOC(=O)[C@]12CCC=C1N(CCC1=CCCCC1)C(=O)[C@H](CC(=O)NCCc1ccccc1OC)C2
Cells [16]
  EC50: > 29.9 µM (inactive)
Cells [17]
  IC50: > 29.9 µM (inactive)

## COc1ccc(CCNC(=O)c2cnc3n(c2=O)CCS3)cc1OC
[1]
  AC50: 13.7 µM (active)

## CN(Cc1nccs1)C(=O)c1cc(COc2cccc3cnccc23)on1
[6]
  AC50: 48.5 µM (active)
Protein Wnt-3a
  IC50: 1.3 µM (active)
[7]
  AC50: 1.2 µM (active)
[8]
  AC50: 2.77 µM (active)

## CCN(CC)c1ccc(NC(=S)Nc2ccc(F)cc2)cc1
[4]
  IC50: > 50 µM (not active)

## COC(=O)c1c(C(=O)OC)c(-c2cccc(F)c2)n2c1C[S+]([O-])C2 (configuration not stated)
[1]
  AC50: 0.659 µM (active)

## N#C/C(=C\c1ccc(-c2ccc(F)cc2)o1)C(=O)Nc1nc(-c2cccs2)cs1
[18]
  EC50: > 99 µM (inactive)
Melanocortin receptor 4
  EC50: > 89.2 µM (inactive)
[19]
  EC50: 27.2 µM (inactive)
Troponin, cardiac muscle
  EC50: > 71.5 µM (inactive)
[20]
  EC50: 30 µM (active)
[21]
  EC50: 25.6 µM (active)

## O=[N+]([O-])c1ccc(NN=Cc2cc(Br)ccc2O)nc1
Beta-galactosidase
  IC50: 39.2 µM (active)

## O=C(/C=C/c1ccc(Cl)cc1)N1CCN(CCN2C(=O)c3cccc4cccc(c34)C2=O)CC1
Beta-galactosidase
  IC50: > 80 µM (inactive)

## C[C@@H]1CCCCO[C@@H](CN(C)S(=O)(=O)c2ccc(Cl)cc2)[C@H](C)CN([C@H](C)CO)C(=O)c2cc(NS(=O)(=O)c3ccc(Cl)cc3)ccc2O1
[12]
  AC50: 21.7 µM (active)
[13]
  AC50: 17.7 µM (active)
Paired box protein Pax-8
  AC50: 3.27 µM (active)
[14]
  AC50: 55.8 µM (active)
[15]
  AC50: 19.5 µM (active)
